Assays:
Collies [1] = assay: Loperamide neurotoxicity in Collies; assay type: in vivo, dogs; conditions: one Collie of the study, homozygous for the mutant allele, treated with an appropriate dose as a puppy
Description: Determination of the genotype of Collies is important clinically for several reasons. […] The dog tested homozygous for the mutant allele.

Collies [2] = conditions: cited from earlier work
Collies [3] = conditions: Collies vs Beagles, one study; cited from earlier work
Collies [4] = assay: Ivermectin sensitivity (signs of neurotoxicosis) in Collies by mdr1 genotype; assay type: in vivo, dogs; conditions: oral 120 μg/kg
Protocol: Blood samples (8 ml) were obtained by jugular venipuncture from each of 13 clinically healthy Collies (Wil-O-Lane Kennels, Allegan, Mich.). […] Each dog was identified by an ear tattoo and housed in a run measuring 4×8 feet with metal walls and a raised, coated, metal screen floor. Facilities exceeded the minimal requirement specified by USDA guidelines.
We took advantage of a well-defined population of ivermectin-sensitive and non-sensitive Collies (Paul et al., Amer. J. Vet. Res. 61:482-483, 2000: Fassler et al., J. Am. Vet. Med. Assoc. 199:457-460, 1991). […] Clinical signs of neurotoxicity that were evaluated include apparent depression, ataxia, mydriasis, salivation, or drooling (Paul et al., Amer. J. Vet. Res. 61:482-483, 2000). Semi-quantitative reverse transcriptase PCR analysis was conducted on RNA isolated from ivermectin-sensitive and non-sensitive Collies to determine if mdr1 expression is lower in sensitive Collies than in non-sensitive Collies. Amplification of a 229-bp product of the canine glyceraldehyde 3-phosphate dehydrogenase (GAPDH) gene was used as an internal standard to control for variability in reverse transcriptase and PCR reactions.

CN(C)C(=O)C(CCN1CCC(O)(c2ccc(Cl)cc2)CC1)(c1ccccc1)c1ccccc1 [loperamide, Loperamide]
neurologic toxicity (Collies [1]): severe (nearly fatal) neurologic toxicity
concentration in brain tissue (Collies [2]; affected Collies): high concentrations in brain tissue
neurotoxicity in Collies (Collies [2]; doses routinely used in other breeds): cause neurotoxicity

Ivermectin
fraction of the lethal dose of ivermectin for Beagles that was lethal for Collies (Collies [3]): 1/200
ivermectin sensitivity (neurotoxicity) (Collies [4]; Collies heterozygous (normal/mutant) or homozygous normal): not sensitive to ivermectin neurotoxicity
ivermectin sensitivity (neurotoxicity) (Collies [4]; Collies homozygous for the mdr1 deletion (mutant/mutant)): exhibit ivermectin sensitivity
